# In US10227349B2, “Pyrazolo[1,5-a]pyrimidine compound” (Eisai R&D Management Co., Ltd., priority 2016, dated 2019):
# Tests used:
# [1] = system: DNFB-induced dermatitis in BALB/c male mice; test: Mouse dermatitis model (DNFB-induced auricle swelling); assay type: in vivo; conditions: 0.3 mg/mL solution 10 mL/kg orally 8 hours after DNFB induction, auricle thickness on following day
# Method: The test compound was added to a 0.5% carboxymethyl cellulose solution so as to have the final concentration of 0.3 mg/mL, thereby preparing an administration solution containing the test compound. Hapten used was 2,4-dinitrofluorobenzene (DNFB, Wako Pure Chemical Industries).
# Twenty-five (25) μL of a solution of DNFB diluted to 0.4% with a mixed solvent of acetone and an olive oil in a volume ratio of 2:1 was applied twice to the shaved abdominal region of BALB/c male mice (Charles River), 6-10 weeks of age, over a period of 2 days to create the sensitization. Four days after the sensitization, on the first day, 20 μL of a solution of DNFB diluted to 0.2% with a mixed solvent of acetone and an olive oil in a volume ratio of 2:1 was applied to the right auricle of the mouse to induce dermatitis. Eight hours after the induction of dermatitis, the administration solution containing the test compound (10 mL/kg) was orally administered to the mouse. On the day following the induction of dermatitis, the right auricle thickness of the mouse was measured using a thickness gauge to evaluate the action of the test compound.
# Note that Reference Example 1 in Table 5 is Compound (XIX).
# [2] = system: tape stripping-induced skin barrier disruption in Hos: HR-1 mice; test: Mouse model of skin barrier disruption induced by tape stripping (TEWL); assay type: in vivo; conditions: TEWL 0 and 1 hour after stripping, average ± standard deviation, n=10
# Method: The effect of the test compounds on the skin barrier functions was evaluated using a model with skin barrier disruption induced by tape stripping. Trans-epidermal water loss (TEWL) is an evaluation indicator of the skin barrier functions (Journal of Investigative Dermatology, 126, p 2074-2086 (2006)).
# Seven-week old male Hos: HR-1 mice (Hoshino Laboratory Animals, Inc.) were subjected to the test (n=10 for each treatment). For oral administration, solutions of test compounds with different concentrations were prepared as follows. […]
# (2) The solution of the test compound prepared in (1) was diluted with a 0.5% methylcellulose solution to prepare a solution of the test compound so that the concentration of the test compound was 0.3 mg/mL. TEWL was measured before the test compound was administered (termed as TEWL [pre]). After the TEWL [pre] was measured, the solution of the test compound adjusted as in (1) or (2) was administered orally (dose: 10 mL/kg). […] TEWL immediately after and 1 hour after the tape stripping were measured (termed as TEWL [0 hour], TEWL [1 hour], respectively), % Barrier recovery was calculated in accordance with the following formula. % Barrier Recovery={(TEWL [0 hour]−TEWL [1 hour])/(TEWL [0 hour]−TEWL [pre])}*100
# The result was expressed as the average ± standard deviation of the % barrier recovery. […]
# [3] = system: mite antigen-induced dermatitis in NC/NgaTndCrlj mice; test: Model for mite antigen-induced atopic dermatitis (dermatitis score); assay type: in vivo, mouse; design: key: sum of 5 findings, each 0 = none, 1 mild, 2 moderate, 3 severe
# Method: A 4 w/v % SDS solution (0.15 mL/mouse) was first applied to the dorsal region and auricle region of 8-week old male NC/NgaTndCrlj mice (Charles River Laboratories Japan, Inc.) under isoflurane inhalation anesthesia. About 3 hours after the application of the 4 w/v % SDS solution (0.15 mL/mouse), a 1 mL-polypropylene disposable syringe (Terumo Corporation) was filled with Bio stir AD (Biostir Inc.) as a mite antigen ointment which was applied to the dorsal region and auricle region (0.1 mL/mouse). Every 2 or 3 days, the 4 w/v % SDS solution (0.15 mL/mouse) and Biostir AD were applied to a total of 8 times including the initial application by the same method to induce dermatitis. After inducing the dermatitis, the conditions of the skin at the application sites (assessments other than itching behavior) were observed and the dermatitis findings 1) to 5) described below were scored based on the evaluation criteria for the clinical symptoms of human atopic dermatitis. Note that the scoring of the dermatitis findings 1) to 5) has 0 for no symptom, 1 for mild, 2 for moderate and 3 for severe. The dermatitis score of each individual is the total of the dermatitis findings 1) to 5). Grouping (15 mice per group) was carried out randomly so that each group had substantially the same (no statistically significant difference) average dermatitis score (total) and average body weight. For 14 days from the day on which the grouping was carried out, an administration solution containing the test compound (10 mL/kg) was orally administered to the mouse once a day (14 times in total). The administration solution was a 0.5% carboxymethyl cellulose solution containing 10 mmol/L sodium hydroxide and made up into three types of solution having test compound concentrations of 0.3, 1 or 3 mg/mL.
SMILES,Inhibitory activity on auricle swelling (%) [1],% Barrier recovery ([2]; 3 mg/kg orally 1 hour before tape stripping),"% Barrier recovery ([2]; 10 mg/kg orally 1 hour before tape stripping, p < 0.05 versus Vehicle)","Dermatitis score (total of findings 1 to 5) ([3]; 3 mg/kg orally once a day, 4 days after starting administration)","Dermatitis score (total of findings 1 to 5) ([3]; 3 mg/kg orally once a day, 7 days after starting administration)","Dermatitis score (total of findings 1 to 5) ([3]; 3 mg/kg orally once a day, 11 days after starting administration)","Dermatitis score (total of findings 1 to 5) ([3]; 3 mg/kg orally once a day, 14 days after starting administration)","Dermatitis score (total of findings 1 to 5) ([3]; 3 mg/kg orally once a day, day 0 (day of grouping))","Dermatitis score (total of findings 1 to 5) ([3]; 10 mg/kg orally once a day, 4 days after starting administration)","Dermatitis score (total of findings 1 to 5) ([3]; 10 mg/kg orally once a day, 7 days after starting administration)","Dermatitis score (total of findings 1 to 5) ([3]; 10 mg/kg orally once a day, 11 days after starting administration)","Dermatitis score (total of findings 1 to 5) ([3]; 10 mg/kg orally once a day, 14 days after starting administration)","Dermatitis score (total of findings 1 to 5) ([3]; 10 mg/kg orally once a day, day 0 (day of grouping))","Dermatitis score (total of findings 1 to 5) ([3]; 30 mg/kg orally once a day, 4 days after starting administration)","Dermatitis score (total of findings 1 to 5) ([3]; 30 mg/kg orally once a day, 7 days after starting administration)","Dermatitis score (total of findings 1 to 5) ([3]; 30 mg/kg orally once a day, 11 days after starting administration)","Dermatitis score (total of findings 1 to 5) ([3]; 30 mg/kg orally once a day, 14 days after starting administration)","Dermatitis score (total of findings 1 to 5) ([3]; 30 mg/kg orally once a day, day 0 (day of grouping))"
"C[C@@H](c1ccccc1)N(C)c1cc(-c2cc(F)c(F)c(F)c2)nc2cc(C(=O)N3CCC(CC(=O)O)CC3)nn12 [Reference Example 1, (S)-2-(1-(7-(methyl(1-phenylethyl)amino)-5-(3,4,5-trifluorophenyl)pyrazolo[1,5-a]pyrimidine-2-carbonyl)piperidin-4-yl)acetic acid, reference compound]",22.3%,,,,,,,,,,,,,,,,,
"CO[C@H]1CN(C(=O)c2cc3nc(-c4cc(F)c(Cl)c(F)c4)cc(N(C)c4c(C)cccc4F)n3n2)CC[C@H]1CC(=O)O [Example 10, 2-((3R,4S)-1-(5-(4-chloro-3,5-difluorophenyl)-7-((2-fluoro-6-methylphenyl)(methyl)amino)pyrazolo[1,5-a]pyrimidine-2-carbonyl)-3-methoxypiperidin-4-yl)acetic acid]",52.9%,24.2 ± 8.1%,53.5 ± 4.9 %,9.1 ± 0.5,8.6 ± 0.7,6.7 ± 0.7,5.4 ± 0.7,9.7 ± 0.5,8.6 ± 0.9,7.7 ± 0.8,7.1 ± 1.0,5.9 ± 0.9,9.3 ± 0.6,8.7 ± 0.7,7.8 ± 0.8,6.5 ± 0.8,5.0 ± 0.8,9.3 ± 0.6
